Assay results as given in US20210228500A1, “CELLULAR RETINOID BINDING PROTEIN ANTAGONISTS AND USES THEREOF” (CASE WESTERN RESRVE UNIVERSITY, priority 2018, published 2021).
Entries after “also recorded” stand apart in the source; their conditions may differ.

Columns and labels:
CRBP2 = biological target: T1, CRBP2 (Homo sapiens, UniProt P50120); experiment: Fluorescence-binding assay with CRBP2
T1 construct: 6x histidine tag (C, cleaved yes); thrombin cut site (residual residues after digestion) (C); made in house; host or cells: E. coli BL21 (DE3)
T1 sequence (P50120 1-134): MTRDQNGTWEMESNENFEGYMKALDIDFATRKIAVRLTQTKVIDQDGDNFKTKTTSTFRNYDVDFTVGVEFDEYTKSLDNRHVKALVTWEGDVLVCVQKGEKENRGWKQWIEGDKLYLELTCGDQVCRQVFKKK

CRBP4 = biological target: T2, CRBP4 (Homo sapiens, UniProt Q96R05); experiment: Crystal structure of CRBP4 in complex with abn-CBD; assay type: binding; details: crystal structure PDB No. 6E6K
T2 construct: thrombin cut site (residual residues after digestion) (C); 6x histidine tag (C, cleaved yes); made in house; host or cells: E. coli BL21 (DE3) (as for CRBP2)
T2 sequence (Q96R05 1-134): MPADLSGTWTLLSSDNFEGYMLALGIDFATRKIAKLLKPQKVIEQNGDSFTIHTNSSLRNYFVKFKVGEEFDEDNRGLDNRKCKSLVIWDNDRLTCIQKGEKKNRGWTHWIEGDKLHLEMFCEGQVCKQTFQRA
Text: The cDNA of human CRBP4 was purchased from Origene Technologies. The introduction of a thrombin cut site at the C-terminus was achieved by PCR amplification of the cDNA. The PCR product was subcloned into pET30b vector. For the most part, CRBP4 was expressed and purified as described for CRBP2. However, after digestion with thrombin and reloading onto HisTrap column, the unbound fraction of the protein was further purified on a HiTrap SP HP ion exchanger column (GE Healthcare). CRBP4 was loaded in 10 mM Tris/HCl buffer, pH 8.0 buffer, and subsequently eluted with a gradient of NaCl (0-0.5 M) over 30 min at a flow rate 1.0 mL min^−1. Purified CRBP4 was concentrated to 6 mg mL^−1 and liquated at −80° C.
Crystals of CRBP1 in complex abn-CBD and its derivatives (abn-CBDO or CBDO) were grown essentially as described by Silvaroli et al (ACS Chem Biol. 2019, 15; 14(3)). The apo protein at 3 mg mL-1 was preincubated with 300 μM of a ligand in 10 mM Tris-HCl buffer, pH 8.0, 150 mM NaCl for 15 min on ice. This sample (1 μL) was mixed in 1:1 ratio with a crystallization solution composed of 0.1 M BisTris, pH 5.5, and 25% poly(ethylene glycol) (PEG) 3350 (w/v). […]

[1] = Detection and quantification of abn-CBD in the ocular tissues; assay type: in vivo, Balb/cJ mice; details: single dose 15 mg kg^−1 i.p.
Method: Balb/cJ mice were i.p. injected with 15 mg kg^−1 dose of abn-CBD. At the time points between 1 and 15 h, they were deeply anesthetized by ketamine/xylazine injection and perfused with PBS. Perfused eyes were collected and homogenized in 1 mL of PBS/methanol (v/v). During the homogenization, 100 pmol of an internal standard (3d-abn-CBD) was added. The samples were extracted with 4 mL of hexane and centrifuged at 15,000 g for […] at 4° C. The organic solvent was transferred to glass test tubes and dried in a Savant speedvac concentrator (Thermo Fisher Scientific). The extracted compounds were dissolved in 0.3 mL of ethanol and subjected to LC/MS analysis and quantification as described above.

RPE65 = biological target: T3, RPE65 (Bos taurus, UniProt Q28175); experiment: RPE65 isomerization activity assay; assay type: biochemical; details: bovine RPE microsomes preincubated with 10-50 μM
T3 construct: from tissue; host or cells: bovine RPE microsomes
T3 sequence (Q28175 whole entry): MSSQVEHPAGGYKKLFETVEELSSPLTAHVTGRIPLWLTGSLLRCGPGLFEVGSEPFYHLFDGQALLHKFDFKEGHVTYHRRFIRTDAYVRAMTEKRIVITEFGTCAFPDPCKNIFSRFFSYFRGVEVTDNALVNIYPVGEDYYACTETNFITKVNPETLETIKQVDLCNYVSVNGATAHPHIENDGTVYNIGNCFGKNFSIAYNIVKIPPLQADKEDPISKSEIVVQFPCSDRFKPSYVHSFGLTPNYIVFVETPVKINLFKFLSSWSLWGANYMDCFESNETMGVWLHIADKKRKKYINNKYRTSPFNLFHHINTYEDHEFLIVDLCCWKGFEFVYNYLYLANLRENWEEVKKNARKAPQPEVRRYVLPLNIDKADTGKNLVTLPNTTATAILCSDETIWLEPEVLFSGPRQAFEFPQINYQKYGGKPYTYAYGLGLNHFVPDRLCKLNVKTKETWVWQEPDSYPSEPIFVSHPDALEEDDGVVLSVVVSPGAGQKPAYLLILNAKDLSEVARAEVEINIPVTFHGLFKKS
Method: For the retinoid isomerization assay, UV-bleached RPE microsomes isolated from bovine eyes served as a source of robust RPE65 enzymatic activity. The isomerization reaction was performed in the presence of cellular retinaldehyde-binding protein (CRALBP) according to an established methodology published previously. The enzymatic reaction was initiated by addition of atROL the final concentration of 10 μM. After incubation at 30° C. for 30 min, the reaction products were extracted with hexane and analyzed by HPLC as described above.
Thus, to further probe the biological effect of this compound, we tested its effect on the key enzymes of the visual cycle. For this purpose, microsomes isolated from bovine RPE cells were preincubated with 10-50 μM of abn-CBD (1:1 to 1:5 molar excess of cannabinoid) prior to the initiation of the esterification, isomerization, or oxidation reactions by addition of an adequate retinoid substrate.

For `C=C(C)[C@@H]1CCC(C)=C[C@H]1c1c(O)cc(O)cc1CCCCC` [abn-CBD, 4-[(1R,6R)-3-Methyl-6-prop-1-en-2-ylcyclohex-2-en-1-yl]-5-pentylbenzene-1,3-diol], the “interaction with CRBP2” value (CRBP2) was “does not interact; also recorded: absence of interaction”, the “binding to CRBP4” value (CRBP4) was “bind abn-CBD similarly to CRBP1” and the half-life ([1]; Balb/cJ, mouse, eye (PBS-perfused, homogenate), ip) was roughly 7 h. For the same compound, the “time of maximum ocular level after the injection” value [1] was 2 h, the “ocular level, maximum value” ([1]; PBS-perfused eyes) was 58 pmol/eye and the “effect on enzymatic activity of RPE65” value (RPE65) was “did not cause a measurable decline”.
